Laboratory results reported in article PMC2994021, “Isolation of cytoplasmic NADPH-dependent phenol hydroxylase and catechol-1,2-dioxygenase from Candida tropicalis yeast” (Interdisciplinary Toxicology, 2010).

Tested on: T1, NADPH-dependent phenol hydroxylase
T1 construct: native enzyme purified from cytosol of phenol-grown yeast (DEAE-Sepharose, PEG 6000, Sepharose 4B), close to homogeneity
Assay: HPLC of phenol consumption, Michaelis-Menten kinetics
Type: biochemical, Candida tropicalis
Settings: with NADPH; same Km from catechol formation; read-out: apparent Km

Question: How did the Km turn out when `Oc1ccccc1` [phenol] was run?
Answer: 450 µM
